Values of other authors, collected in patent US20110104279A1, “HEALING POWDER AND METHOD OF USE THEREOF” (priority 2009, published 2011).

Experiments:
[1] = tested on: acute mediastinitis wounds; conditions: 19 patients, wounds packed every 3 to 4 hours
[2] = tested on: full thickness wounds in the backs of pigs; conditions: wounds 25 mm square, 9 mm deep, packed and covered with Opsite

OC[C@H]1O[C@@](CO)(O[C@H]2O[C@H](CO)[C@@H](O)[C@H](O)[C@H]2O)[C@@H](O)[C@@H]1O [granular sugar, sucrose]
average time of treatment to near complete debridement, granulation tissue formation and eradication of bacterial infection [1]: 7.6 days

N=C(NCCCCCCNC(=N)NC(=N)Nc1ccc(Cl)cc1)NC(=N)Nc1ccc(Cl)cc1.O=C(O)[C@H](O)[C@@H](O)[C@H](O)[C@H](O)CO.O=C(O)[C@H](O)[C@@H](O)[C@H](O)[C@H](O)CO [chlorhexidine gluconate]
wound healing compared with wounds covered with Opsite alone [2]: delayed healing
